The series is described as follows: UV/VIS and fluorescence studies (spectral properties of the probes in four solvents). The following applies: for Absorbance maxima (nm) / Emission maxima (nm): 1 µM or 0,1 µM; for fluorescence intensities: compared with probes 2 and 4 with pyranone motive. It counts as physicochemical. The procedure:
Spectral properties of fluorescent probes 2, 4, 6, 8 and 10 (2 and 4 are for reference only) Spectral characteristics of probes were obtained by using a UV/VIS and fluorescence studies. The probes were measured in four solvents (DMSO, methanol, ethanol and phosphate buffer). Each LysoSers was at first dissolved in DMSO 1mM stock solution which was diluted to a final concentration 1 µM or 0,1 µM.
All prepared probes have absorption maximum in the ultraviolet range of 350-400 nm and emission maximum in the range of 400 to 450 nm. […] Table 1. Absorption and emission maxima of probes 2, 4, 6, 8 and 10 in different solvents (probes 2 and 4 are for reference only)

Structures are written as SMILES.

For the molecule `CCCCCCN1C(=O)c2cccc3c2c(cc2oc(=O)c(C(=O)NCCN(C)C)cc23)C1=O` [Probe 2], the “Absorbance maxima (nm)” value runs as follows: (solvent DMSO) 379 nm; (solvent EtOH) 388 nm; (solvent MeOH) 387 nm; (solvent PBS) 389 nm. In addition, the “Emission maxima (nm)” value was determined as 440 nm (solvent DMSO), 448 nm (solvent EtOH), 442 nm (solvent MeOH) and 448 nm (solvent PBS).
Turning to `CCCCCCN1C(=O)c2cccc3c2c(cc2cc(C(=O)NCCN(C)C)c(=O)oc23)C1=O` [Probe 4], the “Absorbance maxima (nm)” value reads like this: (solvent DMSO) 368 nm; (solvent EtOH) 319 nm; (solvent MeOH) 317 nm; (solvent PBS) 320 nm. Moreover, the “Emission maxima (nm)” value by setting is: (solvent DMSO) 432 nm; (solvent EtOH) 434 nm; (solvent MeOH) 435 nm; (solvent PBS) 437 nm.
For the molecule `CCCCCCN1C(=O)c2cccc3c2c(cc2oc(C(=O)NCCN(C)C)cc23)C1=O` [Probe 6], the fluorescence intensities entry was “higher fluorescence intensities”. For the setting “solvent DMSO”, the “Absorbance maxima (nm)” value is on record as 373 nm and the “Emission maxima (nm)” value was found to be 424 nm. For the same molecule, for the setting “solvent EtOH”, the “Absorbance maxima (nm)” value is 376 nm and the “Emission maxima (nm)” value is 422 nm. For the same molecule, for the setting “solvent MeOH”, the “Absorbance maxima (nm)” value was 373 nm and the “Emission maxima (nm)” value stood at 421 nm. Also, where the note is “solvent PBS”, the “Absorbance maxima (nm)” value is on record as 373 nm and the “Emission maxima (nm)” value is 429 nm.
On to `CCCCCCN1C(=O)c2cccc3c2c(cc2cc(C(=O)NCCN(C)C)oc23)C1=O` [Probe 8], for which the fluorescence intensities result is on record as “higher fluorescence intensities”. In addition, for the setting “solvent DMSO”, the “Absorbance maxima (nm)” value stood at 368 nm and the “Emission maxima (nm)” value was 416 nm. Where the note is “solvent EtOH”, the “Absorbance maxima (nm)” value is 341 nm and the “Emission maxima (nm)” value is 415 nm. In addition, for the setting “solvent MeOH”, the “Absorbance maxima (nm)” value is 341 nm and the “Emission maxima (nm)” value came out at 416 nm. Further, for the setting “solvent PBS”, the “Absorbance maxima (nm)” value came to 360 nm and the “Emission maxima (nm)” value was 428 nm.
Regarding `CN(C)CCNC(=O)c1cc2c(cc3c4c(cccc42)C(=O)N(C)C3=O)o1` [Probe 10], the fluorescence intensities entry is “higher fluorescence intensities”. For the same molecule, where the note is “solvent DMSO”, the “Absorbance maxima (nm)” value came to 377 nm and the “Emission maxima (nm)” value turned out to be 435 nm. Under “solvent EtOH”, the “Absorbance maxima (nm)” value stood at 365 nm and the “Emission maxima (nm)” value amounted to 410 nm. In addition, where the note is “solvent MeOH”, the “Absorbance maxima (nm)” value came to 372 nm and the “Emission maxima (nm)” value is reported as 420 nm. For the setting “solvent PBS”, the “Absorbance maxima (nm)” value came out at 377 nm and the “Emission maxima (nm)” value was 431 nm.

The record behind these values is EP3891153B1, “NAPHTHALIMIDOFURANS FOR APPLICATIONS IN MOLECULAR BIOLOGY” (Univerzita Karlova, 1. Lékarská Fakulta, priority 2018, dated 2020).
